Data reported in patent publication US5063152A, “Synthetic peptidic substrate for determination of trypsin and α1” (Nitto Boseki Co., Ltd., priority 1985, dated 1991).
“And” between values parts separate entries of the source, which are not always exact repeats. Identical values can stand only once. Square brackets hold non-standard residues; d marks the D form. Peptide text beside a SMILES is read from it. * marks the point of attachment. pNA = O=[N+]([O-])c1ccc(N*)cc1; Cbz = O=C(OCc1ccccc1)*

Tests used:
Trypsin (Try) = biological target: T1, Trypsin (Try) (Bos taurus, UniProt P00760); test: substrate specificity test, reaction with trypsin; type: biochemical, Bovine; settings: for measured optical density (absorbance), trypsin: initial substrate concentration 2 mmol/l, 37° C., 5 minutes; for relative reactivity of substrate with trypsin: reactivity of PS-1188N taken as 100, initial substrate concentration 2 mmol
T1 construct: purchased Worthington
T1 sequence (P00760 24-246): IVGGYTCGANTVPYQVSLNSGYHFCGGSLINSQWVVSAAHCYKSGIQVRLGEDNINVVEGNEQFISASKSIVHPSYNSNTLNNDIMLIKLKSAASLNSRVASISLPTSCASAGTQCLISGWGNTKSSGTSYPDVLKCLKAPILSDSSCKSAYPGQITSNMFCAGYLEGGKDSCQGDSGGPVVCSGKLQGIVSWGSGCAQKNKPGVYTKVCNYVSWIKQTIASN
Procedure: (§1) The synthetic peptides obtained in Examples 1 and 2 were subjected to a substrate specificity test by reacting with various enzymes under the following conditions.
(§2) 1) substrate solution: 10 mmol/l (concentration)
(§3) 2) buffer solution: tris-HCl buffer
(§4) Concentrations of NaCl, and CaCl2 and pH (at 25° C.) were adjusted as shown in Table 2 depending on enzymes to be reacted: […]
(§5) 4) Reaction stopper solution in the case of pNA: 10% acetic acid
(§6) 5) Color producing reagent for CHA: sodium pentacyanoamine ferroate
(§7) The buffer solution in an amount of 0.3 ml and 0.1 ml of an enzyme solution were placed in a test tube made of hard glass treated with silicon or a test tube made of a plastic (polystyrene) and preheated for 5 minutes in a constant temperature bath maintained at 37° C. Then, 0.1 ml of a substrate solution was added to the test tube and incubated at 37° C. for just 5 minutes. Subsequently, 2.0 ml of the reaction stopper solution (in the case of pNA) or the color producing reagent (in the case of CHA) was added to the reaction solution to terminate the enzymatic reaction. After allowing to stand at 37° C. for 10 minutes, absorbance (optical density) at 405 nm (in the case of pNA) or at 700 nm (in the case of coupled CHA) was measured. The initial substrate concentration was 2 mmol/l.

Thrombin (TH) = biological target: T2, Thrombin (TH) (Bos taurus, UniProt P00735); test: substrate specificity test, reaction with thrombin; type: biochemical, Bovine; settings: for measured optical density (absorbance), thrombin: initial substrate concentration 2 mmol/l, 37° C., 5 minutes; for relative reactivity in the case of thrombin: Table 1, PS-1188N = 100; for relative reactivity of substrate with thrombin: reactivity of PS-1188N taken as 100, initial substrate concentration 2 mmol
T2 construct: Thrombin; purchased Mochida Pharmaceutical Co., Ltd
Procedure: as §1, §2, §3, §4, §5, §6, §7

Plasmin (PL) = biological target: T3, Plasmin (PL) (Homo sapiens, UniProt P00747); test: substrate specificity test, reaction with plasmin; type: biochemical; settings: for measured optical density (absorbance), plasmin: initial substrate concentration 2 mmol/l, 37° C., 5 minutes; for relative reactivity in the case of plasmin: Table 1, PS-1188N = 100; for relative reactivity of substrate with plasmin: reactivity of PS-1188N taken as 100, initial substrate concentration 2 mmol
T3 construct: Plasmin Human; purchased Green Cross Corp
Procedure: as §1, §2, §3, §4, §5, §6, §7

Factor Xa (FXa) = biological target: T4, Factor Xa (FXa) (Bos taurus, UniProt P00743); test: substrate specificity test, reaction with factor Xa; type: biochemical, Bovine; settings: for measured optical density (absorbance), factor Xa: initial substrate concentration 2 mmol/l, 37° C., 5 minutes; for relative reactivity in the case of factor Xa: Table 1, PS-1188N = 100; for relative reactivity of substrate with factor Xa: reactivity of PS-1188N taken as 100, initial substrate concentration 2 mmol
T4 construct: Factor Xa; purchased Sigma Chem. Co
Procedure: as §1, §2, §3, §4, §5, §6, §7

Kallikrein (KL) = biological target: T5, Kallikrein (KL) (Sus scrofa, UniProt P00752); test: substrate specificity test, reaction with kallikrein; type: biochemical, Porcine; settings: for measured optical density (absorbance), kallikrein: initial substrate concentration 2 mmol/l, 37° C., 5 minutes; for relative reactivity in the case of kallikrein: Table 1, PS-1188N = 100; for relative reactivity of substrate with kallikrein: reactivity of PS-1188N taken as 100, initial substrate concentration 2 mmol
T5 construct: purchased Sigma Chem. Co
Procedure: as §1, §2, §3, §4, §5, §6, §7

Urokinase (UK) = biological target: T6, Urokinase (UK) (Homo sapiens, UniProt P00749); test: substrate specificity test, reaction with urokinase; type: biochemical; settings: initial substrate concentration 2 mmol/l, 37° C., 5 minutes
T6 construct: purchased Mochida Pharmaceutical Co., Ltd
Procedure: as §1, §2, §3, §4, §5, §6, §7

T4 sequence (P00743 234-492 limits assumed): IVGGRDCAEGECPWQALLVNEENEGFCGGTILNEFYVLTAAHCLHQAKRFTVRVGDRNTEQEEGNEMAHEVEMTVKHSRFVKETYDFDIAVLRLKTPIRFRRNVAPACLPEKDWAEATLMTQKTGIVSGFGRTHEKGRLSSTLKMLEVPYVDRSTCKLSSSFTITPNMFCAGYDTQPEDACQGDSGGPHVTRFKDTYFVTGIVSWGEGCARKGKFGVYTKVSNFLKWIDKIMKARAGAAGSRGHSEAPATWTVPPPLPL
T4 sequence (P00743 41-180 partner limits assumed): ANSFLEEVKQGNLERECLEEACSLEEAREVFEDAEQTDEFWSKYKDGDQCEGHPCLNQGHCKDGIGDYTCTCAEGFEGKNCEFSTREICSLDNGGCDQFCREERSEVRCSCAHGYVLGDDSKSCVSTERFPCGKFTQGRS
T3 sequence (P00747 581-810 limits assumed): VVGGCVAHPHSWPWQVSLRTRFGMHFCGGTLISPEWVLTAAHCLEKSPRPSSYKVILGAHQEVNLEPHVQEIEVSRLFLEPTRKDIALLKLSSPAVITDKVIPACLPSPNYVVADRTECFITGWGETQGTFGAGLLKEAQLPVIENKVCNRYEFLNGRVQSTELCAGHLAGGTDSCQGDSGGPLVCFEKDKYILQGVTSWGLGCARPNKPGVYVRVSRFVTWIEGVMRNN
T3 sequence (P00747 97-580 partner limits assumed): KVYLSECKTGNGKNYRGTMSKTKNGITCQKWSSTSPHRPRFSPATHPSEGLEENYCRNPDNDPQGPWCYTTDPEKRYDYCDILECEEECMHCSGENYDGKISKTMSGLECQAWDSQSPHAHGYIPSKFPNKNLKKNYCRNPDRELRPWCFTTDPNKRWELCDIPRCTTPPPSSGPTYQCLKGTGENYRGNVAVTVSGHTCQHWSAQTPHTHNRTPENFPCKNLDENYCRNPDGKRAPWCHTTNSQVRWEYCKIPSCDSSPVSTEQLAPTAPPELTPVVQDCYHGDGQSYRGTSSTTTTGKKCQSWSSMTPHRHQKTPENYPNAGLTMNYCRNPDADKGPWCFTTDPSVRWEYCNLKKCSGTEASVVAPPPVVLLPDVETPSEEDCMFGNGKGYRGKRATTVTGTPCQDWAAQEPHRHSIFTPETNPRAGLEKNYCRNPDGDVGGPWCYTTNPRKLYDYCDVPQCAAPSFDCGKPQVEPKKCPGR
T5 sequence (P00752 8-246): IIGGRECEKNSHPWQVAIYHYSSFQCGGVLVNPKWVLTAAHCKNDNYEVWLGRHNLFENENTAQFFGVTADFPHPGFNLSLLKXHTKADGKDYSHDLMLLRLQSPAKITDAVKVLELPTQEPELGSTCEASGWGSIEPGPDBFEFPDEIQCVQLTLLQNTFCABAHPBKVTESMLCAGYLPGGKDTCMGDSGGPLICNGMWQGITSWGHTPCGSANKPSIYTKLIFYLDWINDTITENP

With `CC(C)[C@H](NC(=O)OCc1ccccc1)C(=O)NCC(=O)N[C@@H](CCCNC(=N)N)C(=O)Nc1ccc([N+](=O)[O-])cc1` [CHR-TRY, Z-Val-Gly-Arg-pNA] (Cbz-Val-Gly-Arg-pNA) the “measured optical density (absorbance), trypsin” value (Trypsin (Try); 405 nm (pNA)) was 2.601, the “relative reactivity of substrate with trypsin” value (Trypsin (Try)) was 1626 and the “measured optical density (absorbance), thrombin” value (Thrombin (TH); 405 nm (pNA)) was 0.066. The “relative reactivity in the case of thrombin” value (Thrombin (TH)) was 2200%, the “relative reactivity of substrate with thrombin” value (Thrombin (TH)) was 2200 and the “measured optical density (absorbance), plasmin” value (Plasmin (PL); 405 nm (pNA)) was 0.057. The “relative reactivity in the case of plasmin” value (Plasmin (PL)) was 43%, the “relative reactivity of substrate with plasmin” value (Plasmin (PL)) was 43 and the “measured optical density (absorbance), factor Xa” value (Factor Xa (FXa); 405 nm (pNA)) was 0.148. For the same compound, the “relative reactivity in the case of factor Xa” value (Factor Xa (FXa)) was 2114%, the “relative reactivity of substrate with factor Xa” value (Factor Xa (FXa)) was 2114 and the “measured optical density (absorbance), kallikrein” value (Kallikrein (KL); 405 nm (pNA)) was 0.029. For the same compound, the “relative reactivity in the case of kallikrein” value (Kallikrein (KL)) was 74%, the “relative reactivity of substrate with kallikrein” value (Kallikrein (KL)) was 74 and the “measured optical density (absorbance), urokinase” value (Urokinase (UK); 405 nm (pNA)) was 0.112.
In the case of `CC(C)C[C@H](NC(=O)[C@H]1CCCN1)C(=O)N[C@@H](CCCCN)C(=O)Nc1ccc([N+](=O)[O-])cc1` [PS-1188N, H-D -Pro-Leu-Lys-pNA] (H-[dP]-Leu-Lys-pNA), the “measured optical density (absorbance), trypsin” value (Trypsin (Try); 405 nm (pNA)) is reported as 0.160, the “relative reactivity of substrate with trypsin” value (Trypsin (Try)) is reported as 100 and the “measured optical density (absorbance), thrombin” value (Thrombin (TH); 405 nm (pNA)) is reported as 0.003. The “relative reactivity of substrate with thrombin” value (Thrombin (TH)) was 100, the “measured optical density (absorbance), plasmin” value (Plasmin (PL); 405 nm (pNA)) was 0.134 and the “relative reactivity of substrate with plasmin” value (Plasmin (PL)) was 100. The “measured optical density (absorbance), factor Xa” value (Factor Xa (FXa); 405 nm (pNA)) was 0.007, the “relative reactivity of substrate with factor Xa” value (Factor Xa (FXa)) was 100 and the “measured optical density (absorbance), kallikrein” value (Kallikrein (KL); 405 nm (pNA)) was 0.032 and 0.039. The “relative reactivity of substrate with kallikrein” value (Kallikrein (KL)) was 100 and the “measured optical density (absorbance), urokinase” value (Urokinase (UK); 405 nm (pNA)) was 0.0.
With `CC(C)C[C@H](NC(=O)[C@H]1CCCN1)C(=O)N[C@@H](CCCCN)C(=O)Nc1ccc(O)c(C(=O)O)c1` [PS-1188, H-D -Pro-Leu-Lys-CHA] the “measured optical density (absorbance), trypsin” value (Trypsin (Try); 700 nm (coupled CHA)) was 0.314, the “relative reactivity of substrate with trypsin” value (Trypsin (Try)) was 86 and the “measured optical density (absorbance), thrombin” value (Thrombin (TH); 700 nm (coupled CHA)) was 0.0. The “relative reactivity in the case of thrombin” value (Thrombin (TH)) was 0%, the “relative reactivity of substrate with thrombin” value (Thrombin (TH)) was 0 and the “measured optical density (absorbance), plasmin” value (Plasmin (PL); 700 nm (coupled CHA)) was 0.008. For the same compound, the “relative reactivity in the case of plasmin” value (Plasmin (PL)) was 3%, the “relative reactivity of substrate with plasmin” value (Plasmin (PL)) was 3 and the “measured optical density (absorbance), factor Xa” value (Factor Xa (FXa); 700 nm (coupled CHA)) was 0.006. For the same compound, the “relative reactivity in the case of factor Xa” value (Factor Xa (FXa)) was 37%, the “relative reactivity of substrate with factor Xa” value (Factor Xa (FXa)) was 37 and the “measured optical density (absorbance), kallikrein” value (Kallikrein (KL); 700 nm (coupled CHA)) was 0.002. For the same compound, the “relative reactivity in the case of kallikrein” value (Kallikrein (KL)) was 2%, the “relative reactivity of substrate with kallikrein” value (Kallikrein (KL)) was 2 and the “measured optical density (absorbance), urokinase” value (Urokinase (UK); 700 nm (coupled CHA)) was 0.001.
